# Experiments:
# [1] = Protection against hepatic intoxication by CCl4 and cold, Compound A (BSF in blood); type: in vivo; details: 500 mg/kg simultaneously with CCl4; 5 h at 4° C.
# Procedure: Oral administration of 5 ml/kg of a 20% solution of CCl4 in oil was followed by exposure for 5 hours to a temperature of 4° C. 500 Mg/kg of the Compound A of the invention were administered simultaneously with the CCl4. The BSF was tested in the blood. An average of 20 animals were used per group, and relative to the controls there was a reduction of 16%.
# [2] = Choleretic activity in cannulated rats; type: in vivo, rat
# Procedure: Rats were fitted with a cannula, the bile volume was measured after the first hour, they were then treated with a test compound and the bile volume was measure after the second hour, so as to determine the percentage change. The various compounds were administered intravenously at a dose of 100 mg/kg.
# [3] = Vasodilator activity (vasodilation of the ocular conjunctiva in guinea pigs); type: in vivo, guinea pig
# [4] = Antilipemic action, Morris or Handler diet, Compound A; type: in vivo, Wistar rat; details: for Bile BSF excretion, percentage change vs controls / Serum beta-lipoproteins, percentage change vs controls / Serum total cholesterol, percentage change vs controls / Serum total lipids, percentage change vs controls: 50 days, 200 mg/kg orally
# Procedure: Wistar rats were treated for 50 days with a Morris diet or a Handler diet. Simultaneously with the diet they received 200 mg/kg of Compound A or of choline orally every day. The controls only received the diet. The following were examined at the end of the treatment: (a) total cholesterol, total lipids and beta-lipoproteins in the serum, (b) BSF excretion in the bile.
# [5] = Toxicology, oral treatment of mice for 180 days, Compound A; type: in vivo, mouse; details: 200 mg/kg orally
# [6] = Acute toxicity, rat; details: in vivo, intravenous, sodium salt solution
# Procedure: (§1) Tests were carried out both on mice and rats by means of oral, subcutaneous, intraperitoneal and intravenous administration.
# (§2) In the case of oral administration, the product was used in the acid form suspended in an aqueous solution of carboxymethylcellulose, whilst in the case of parenteral administration it was made soluble by salt formation with sodium hydroxide in a physiological solution with a neutral final pH.
# (§3) The results are given in the following table, together with the results found in the literature for acetylsalicylic acid (ASA).
# (§4) Wherever possible, the values of the LD50 were calculated using the probit method; if no mortality took place even at very high dosages, the maximum dosage tested has been given.
# [7] = Antipyretic activity: pyrexia from subcutaneous yeast in the rat; type: in vivo; details: p.o., ASA 200, AST 300 mg/Kg
# Procedure: Pyrexia from subcutaneous yeast in the rat. The AST product was administered orally in the acid from and the salt form with sodium, and by the intraperitoneal method in the salt form. It was compared with a molar equivalent dose of acetylsalicylic acid administered orally and with a carboxymethylcellulose placebo. The pyrexia was induced with a subcutaneous injection of yeast on the evening prior to the drug treatment, i.e. 16 hours before.
# [8] = Pharmaco-toxicological tests on laboratory animals (summary); type: in vivo
# [9] = Analgesic activity: convulsions produced by phenylquinone; type: in vivo, mouse; details: oral, ASA 200, AST 300 mg/Kg
# Procedure: (A) Test of convulsions produced by phenylquinone injected into mice by the intraperitoneal route. The AST product was administered orally both in the acid form (AST Ac). and as the sodium salt (AST Na). It was compared with a molar equivalent dosage of acetylsalicylic acid and with a carboxymethylcellulose placebo. The convulsions were induced at varying intervals from the oral treatment counting from the first 20 minutes after the injection of phenylquinone.
# [10] = Analgesic activity: mechanical pressure test on inflamed rat's paw; type: in vivo; details: oral, ASA 200, AST 300 mg/Kg
# Procedure: (B) Mechanical pressure test on inflamed rat's paw. The AST product was administered both in the acid and sodium salt form by the oral method. It was compared with a molar equivalent dosage of acetylsalicylic acid and with a carboxymethylcellulose placebo. The inflammation of the paw was induced by a local injection of yeast simultaneously with the oral treatment with the drugs and the tenderness was measured in grams of mechanical pressure required to cause a reaction in the animal.
# [11] = Acute toxicity, mouse; details: in vivo
# Procedure: as §1, §2, §3, §4
# [12] = Edema as a result of nystatin in the rat's paw; type: in vivo; details: p.o.
# Procedure: (B) Edema as a result of nystatin in the rat's paw. The long duration of this type of edema enabled the animals to be repeatedly treated in order to ascertain the presence if any of the protracted effect of the AST product also using parenteral administration. The comparison was carried out using a molar equivalent dose of acetylsalicylic acid administrated orally and with the carboxymethylcellulose placebo also only administered orally. The AST product was used in the acid form orally and in the salt form using intraperitoneal administration.
# The dosages of the drugs, always proportional to one another, were varied from day to day, i.e.: the first day a dosage of 200 mg/Kg of ASA and 300 mg/Kg of AST; the second day a double dose of each; the third day a double dose of each divided into two equal components administered with a spacing of 9 hours (10 am and 7 pm respectively); the fourth day no treatment in order to check the length of the effect after the fourth administration.
# The […] was injected into the paw on the night before the first treatment with the drugs and the volume of the paw was measured in hundredths of milliliter.
# [13] = Edema resulting from yeast in the paw of the rat; type: in vivo; details: oral, ASA 200, AST 300 mg/Kg
# Procedure: (A) Edema resulting from yeast in the paw of the rat. The AST product was administered orally both in the acid and sodium salt form. It was compared with a molar equivalent dose of acetylsalicylic acid and with carboxymethylcellulose placebo. The edema of the paw was induced with a local injection of the yeast simultaneously with the oral treatment with the drugs, and the volume of the paw was measured in hundredths of milliliter.
# [14] = type: in vivo, rat; details: rat, in vivo, po, 335 mg/kg
# Procedure: Rats which had not been fed for 24 hours were used. The AST product was administered orally as the acid or the sodium salt at a dosage of 335 mg/Kg suspended in 1% carboxymethylcellulose. […] Both the methods of treatment and the observation time were identical for the 3 groups of animals.
# [15] = 100 mg/kg i.v., given after first hour
compound,measurement,setting,value
"O=C(OCCN(CCS(=O)(=O)O)C(=O)c1cccnc1)c1cccnc1 [Compound A, N-nicotinoyl-N-(2-nicotinoyloxy)ethyltaurine]",Reduction of BSF in the blood relative to controls,[1],16%
same,Bile dry residue change,[2]; 100 mg/kg i.v.,+40.0%
same,Bile volume change,[2]; 100 mg/kg i.v.,+52.0%
same,Choleretic activity (in words),[2]; 100 mg/kg i.v.,appearance of choleretic activity
same,Bile dry residue after 2 h,[2]; [15],35.3 mg/h
same,Bile volume after 2 h,[2]; [15],1.14 mL/h
same,Bile dry residue after 1 h,[2]; before treatment (first hour),25.7 mg/h
same,Bile volume after 1 h,[2]; before treatment (first hour),0.75 mL/h
same,Vasodilator effect: duration,[3]; 0.1 mg/kg endoperitoneal,0 min
same,Vasodilator effect: positive response,[3]; 0.1 mg/kg endoperitoneal,0%
same,Vasodilator effect: duration,[3]; 1.0 mg/kg endoperitoneal,120 min
same,Vasodilator effect: positive response,[3]; 1.0 mg/kg endoperitoneal,80%
same,Vasodilator effect: time of appearance,[3]; 1.0 mg/kg endoperitoneal,90 s
same,Vasodilator effect: duration,[3]; 10.0 mg/kg endoperitoneal,120 min
same,Vasodilator effect: positive response,[3]; 10.0 mg/kg endoperitoneal,100%
same,Vasodilator effect: time of appearance,[3]; 10.0 mg/kg endoperitoneal,96 s
same,Vasodilator activity (in words),[3]; endoperitoneal,better activity than the 3-pyridylcarbinol compound
same,"Bile BSF excretion, percentage change vs controls",[4]; Handler diet,+36.0%
same,"Serum beta-lipoproteins, percentage change vs controls",[4]; Handler diet,-28.9%
same,"Serum total cholesterol, percentage change vs controls",[4]; Handler diet,-26.9%
same,"Serum total lipids, percentage change vs controls",[4]; Handler diet,-19.6%
same,"Bile BSF excretion, percentage change vs controls",[4]; Morris diet,+23.5%
same,"Serum beta-lipoproteins, percentage change vs controls",[4]; Morris diet,-34.3%
same,"Serum total cholesterol, percentage change vs controls",[4]; Morris diet,-14.3%
same,"Serum total lipids, percentage change vs controls",[4]; Morris diet,-17.0%
same,Oral absorption (deduced from diet tests),"[4]; oral, Morris and Handler diets",absorbed orally
same,Mortality,[5],no mortality
"CC(=O)Oc1ccccc1C(=O)OCCN(CCOC(=O)c1ccccc1OC(C)=O)CCS(=O)(=O)O [AST, N,N-di(acetylsalicyloyloxy ethyl)taurine]",LD50,[6],530 mg/kg
same,% Inhibition of the pyrexia in respect of treatment with placebo,[7]; 1h,18%
same,% Inhibition of the pyrexia in respect of treatment with placebo,[7]; 2h,26%
same,% Inhibition of the pyrexia in respect of treatment with placebo,[7]; 4h,30%
same,% Inhibition of the pyrexia in respect of treatment with placebo,[7]; 6h,25%
same,% Inhibition of the pyrexia in respect of treatment with placebo,[7]; 8h,9%
same,"Antiinflammatory, analgesic and antipyretic properties (in words)",[8]; compared with acetylsalicylic acid,"marked antiinflammatory, analgesic and antipyretic properties comparable to those of acetylsalicylic acid"
same,Duration of pharmacodynamic activity in comparison with acetylsalicylic acid (in words),[8]; in vivo,more prolonged pharmacodynamic activity
same,Gastric injury (in words),[8]; in vivo,did not exert any appreciable gastric injury
same,Toxicity in comparison with acetylsalicylic acid (in words),[8]; in vivo,less toxic
same,Inhibition % of convulsions in respect of treatment with placebo,[9]; 1h,10%
same,Inhibition % of convulsions in respect of treatment with placebo,[9]; 2h,11%
same,Inhibition % of convulsions in respect of treatment with placebo,[9]; 4h,0%
same,% Inhibition of the hyperalgesia in respect of treatment with placebo,[10]; 1h,47%
same,% Inhibition of the hyperalgesia in respect of treatment with placebo,[10]; 3h,47%
same,% Inhibition of the hyperalgesia in respect of treatment with placebo,[10]; 5h,19%
same,LD50,"[11]; intravenous, sodium salt solution",520 mg/kg
same,LD50,"[11]; ip, intraperitoneal, sodium salt solution",1300 mg/kg
same,LD50,"[11]; oral, acid form in carboxymethylcellulose",5000 mg/kg
same,LD50,"[11]; sc, subcutaneous, sodium salt solution",2000 mg/kg
same,% Inhibition of the edema in respect of treatment with placebo,"[12]; 1st day, 2h after 1st dose, ASA 200, AST Ac 300 mg/Kg",0%
same,% Inhibition of the edema in respect of treatment with placebo,"[12]; 1st day, 4h after 1st dose, ASA 200, AST Ac 300 mg/Kg",3%
same,% Inhibition of the edema in respect of treatment with placebo,"[12]; 1st day, 8h after 1st dose, ASA 200, AST Ac 300 mg/Kg",3%
same,% Inhibition of the edema in respect of treatment with placebo,"[12]; 2nd day, 2h after 2nd dose, ASA 400, AST Ac 600 mg/Kg",3%
same,% Inhibition of the edema in respect of treatment with placebo,"[12]; 2nd day, 4h after 2nd dose, ASA 400, AST Ac 600 mg/Kg",2%
same,% Inhibition of the edema in respect of treatment with placebo,"[12]; 2nd day, 8h after 2nd dose, ASA 400, AST Ac 600 mg/Kg",10%
same,% Inhibition of the edema in respect of treatment with placebo,"[12]; 3rd day, 2h after 3rd dose, ASA 200, AST Ac 300 mg/Kg",8%
same,% Inhibition of the edema in respect of treatment with placebo,"[12]; 3rd day, 4h after 3rd dose, ASA 200, AST Ac 300 mg/Kg",7%
same,% Inhibition of the edema in respect of treatment with placebo,"[12]; 3rd day, 8h after 3rd dose, ASA 200, AST Ac 300 mg/Kg",6%
same,% Inhibition of the edema in respect of treatment with placebo,"[12]; 4th day, 13h after 4th dose, ASA 200, AST Ac 300 mg/Kg",3%
same,% Inhibition of the edema in respect of treatment with placebo,"[12]; 4th day, 17h after 4th dose, ASA 200, AST Ac 300 mg/Kg",3%
same,% Inhibition of the edema in respect of treatment with placebo,"[12]; 4th day, 23h after 4th dose, ASA 200, AST Ac 300 mg/Kg",0%
same,Inhibition of the edema with respect to treatment with placebo,[13]; 1h,42
same,Inhibition of the edema with respect to treatment with placebo,[13]; 3h,38
same,Inhibition of the edema with respect to treatment with placebo,[13]; 5h,48
same,Alteration of the gastric or intestinal mucosa,[14],did not show any alteration of the gastric or intestinal mucosa
